US4256748A, “Imidazo[2,1-b]quinazolin-2(3H)-ones and pharmaceutical compositions for treatment and prophylaxis of cardiac insufficiency and cardiac failure” (Hoffmann-La Roche Inc., priority 1977, dated 1981)
Counter-ions that a name gives are not always drawn.

Key:
[1] = test system: blood platelet aggregation; assay: Collagen-induced blood platelet aggregation, rabbit plasma (aggregometer method of BORN); type: cell-based; conditions: Oryctolagus cuniculus, 1 min, 37° C., 1 minute, maximum aggregation velocity, read-out: EC 50, collagen-induced blood platelet aggregation, rabbit plasma
Method: (§1) The maximum aggregation velocity was taken as the test parameter and the effective concentration (EC50) was ascertained from dosage-activity curves. Rabbit plasma was obtained by centrifugation from arterial blood treated with citrate (9 mM). 1 ml. of plasma was treated with 10 μl of test solution and the mixture was incubated at 37° C. for 1 minute, whereupon 8 μl of collagen-fibril suspension or 10 μl. of adenosine diphosphate (ADP) in 10^-4 N sodium chloride solution were added. Plasma incubated with dimethylsulfoxide served as the control. |Collagen- and ADP-induced blood platelet aggregation

[2] = test system: blood platelet aggregation; assay: ADP-induced blood platelet aggregation, rabbit plasma (aggregometer method of BORN); type: cell-based; conditions: Oryctolagus cuniculus, 1 min, 37° C., 1 minute, maximum aggregation velocity, read-out: EC 50, ADP-induced blood platelet aggregation, rabbit plasma
Method: as §1

[3] = test system: blood platelet aggregation; assay: Collagen-induced blood platelet aggregation, human plasma (aggregometer method of BORN); type: cell-based; conditions: 10 min, 37° C., maximum aggregation velocity, read-out: EC 50, collagen-induced blood platelet aggregation, human plasma
Method: The maximum aggregation velocity was taken as the test parameter and the effective concentration (EC50) was ascertained from dosage-activity curves. Human plasma was obtained by centifugation from venous blood treated with citrate (10.6 mM). 0.18 ml. of plasma was treated with 10 μl of an aqueous suspension of the test substance and the mixture was incubated at 37° C. for 10 minutes, whereupon the aggregation was initiated by the addition of 10 μl of collagen-fibril suspension. |Collagen- and ADP-induced blood platelet aggregation

conscious sheepdogs = assay: Positive inotropic activity and heart frequency after oral administration to conscious sheepdogs; type: in vivo
Method: The positive inotropic activity was measured after the oral administration of a test substance to conscious sheepdogs. For this purpose, the animals are provided with an implanted pressure-telemetry system, so that the pressure receiver is fixed in the left ventricle. The left ventricular pressure is sent from the animal via the implanted radio transmitter and received via a suitable antenna and receiver system, demodulated and amplified. By differentiation of the ascending side of the left ventricular pressure (LVP), the maximum pressure increase rate (dLVP/dtmax) which represents the contractility parameter is calculated. Simultaneously, the heart frequency is recorded via a cardiotachograph. Under the heading inotropy in Table II, the percentage variation (Δ%) of dLVP/dtmax and the duration of activity in minutes (min) are indicated. Under the heading tachycardia in Table II, the percentage variations of the heart frequency (Δ%) after administration of the test substance and the duration of activity in minutes (min) are indicated.

With `Cc1ccc2c(c1)CN1C(=N2)NC(=O)[C@@H]1C` [L-1,5-Dihydro-3,7-dimethyl-imidazo[2,1-b]quinazolin-2(3H)-one hydrochloride] the EC50 [1] was 22 µM, the EC50 [2] was 77 µM and the EC50 [3] was 33 µM.

Molecule `Cc1cccc2c1N=C1NC(=O)[C@@H](C)N1C2` [D-1,5-dihydro-3,9-dimethylimidazo[2,1-b]-quinazolin-2(3H)-one hydrochloride] has an EC50 [1] of 3 µM, an EC50 [2] of 32 µM and an EC50 [3] of 26 µM.

In the case of `C[C@@H]1C(=O)NC2=Nc3cccc(Cl)c3CN21.Cl` [D-6-chloro-1,5-dihydro-3-methyl-imidazo[2,1-b]quinazolin-2(3H)-one hydrochloride], the “Heart frequency Min (duration of activity; tachycardia)” value (shortened to “Heart frequency Min”) (conscious sheepdogs; 5 mg/kg) is reported as 115 min, the “Heart frequency Δ % (percentage variation; tachycardia)” value (conscious sheepdogs; 5 mg/kg) is reported as 28% and the “Inotropy Min (duration of activity)” value (conscious sheepdogs; 5 mg/kg) is reported as 145 min. The “Inotropy Δ % (percentage variation of dLVP/dtmax)” value (conscious sheepdogs; 5 mg/kg) was 93%.

Work on `Cc1cccc2c1CN1C(=N2)NC(=O)[C@@H]1CO` [L-1,5-dihydro-3-hydroxymethyl-6-methyl-imidazo[2,1-b]quinazoline-2(3H)-onehydrochloride] yielded an EC50 [3] of 14 µM.

In the case of `Cc1cccc2c1CN1C(=N2)NC(=O)[C@@H]1C` [L-1,5-dihydro-3,6-dimethylimidazo[2,1-b]-quinazoline-2(3H)-one hydrochloride], the EC50 [1] is reported as 0.93 µM, the EC50 [2] is reported as 11 µM and the EC50 [3] is reported as 6.2 µM.

With `Cc1cccc2c1N=C1NC(=O)[C@H](C)N1C2` [L-1,5-dihydro-3,9-dimethylimidazo[2,1-b]quinazolin-2(3H)-one] the EC50 [1] was 18 µM, the EC50 [2] was 60 µM and the “Heart frequency Min” value (conscious sheepdogs; 10 mg/kg) was 100 min. The “Heart frequency Δ % (percentage variation; tachycardia)” value (conscious sheepdogs; 10 mg/kg) was 16%, the “Inotropy Min (duration of activity)” value (conscious sheepdogs; 10 mg/kg) was 120 min and the “Inotropy Δ % (percentage variation of dLVP/dtmax)” value (conscious sheepdogs; 10 mg/kg) was 43%. The EC50 [3] was 49 µM.

Work on `Cc1ccc2c(c1)CN1C(=N2)NC(=O)[C@H]1C` [D-1,5-dihydro-3,7-dimethylimidazo[2,1-b]-quinazolin-2(3H)-one hydrochloride] yielded an EC50 [1] of 3.1 µM, an EC50 [2] of 19 µM and an EC50 [3] of 3.4 µM.

For `Cc1cccc2c1CN1C(=N2)NC(=O)[C@H]1C.Cl` [D-1,5-dihydro-3,6-dimethylimidazo[2,1-b]-quinazolin-2(3H)-one hydrochloride], the EC50 [1] was 0.19 µM, the EC50 [2] was 2.2 µM and the “Heart frequency Min” value (conscious sheepdogs; 10 mg/kg) was 480 min. For the same molecule, the “Heart frequency Δ % (percentage variation; tachycardia)” value (conscious sheepdogs; 10 mg/kg) was 63%, the “Inotropy Min (duration of activity)” value (conscious sheepdogs; 10 mg/kg) was 440 min and the “Inotropy Δ % (percentage variation of dLVP/dtmax)” value (conscious sheepdogs; 10 mg/kg) was 82%. It also gave an EC50 [3] of 2.3 µM.
